Experimental data as given in patent publication US10668018B2, “Pharmaceutical compositions” (MEXICHEM AMANCO HOLDINGS S.A. DE C.V., priority 2011, dated 2020).

Columns and labels:
[1] = Amount of ethanol required to dissolve the drug in propellant/ethanol mixture (visual, first clear solution); type: physicochemical; settings: for ethanol required to dissolve the drug: 20° C., drug amount equivalent to MDI dose of 50 μg (FP) or 250 μg (BDP); for Ethanol Content in R-134a / Ethanol Content in R-152a: amount required to dissolve the drug completely, BDP 250 μg, FP 50 μg dose
Method: A series of glass vials were charged with 0.00869 g (8.69 mg) of fluticasone propionate. R-152a propellant was then added to each vial, the amount being decreased from one vial to the next to compensate for increasing amounts of ethanol. An amount of ethanol was then added to each vial, with the amount being increased in increments from one vial to the next, in order to determine the minimum amount of ethanol required to dissolve the fluticasone propionate in the R-152a/ethanol mixture. […] The amount of ethanol in the R-152a/ethanol mixture was increased from 1% by weight on the total weight of the R-152a/ethanol mixture in 1% w/w increments. After adding the ethanol, each vial was sonicated in an effort to dissolve the drug, stored at 20° C. and then examined visually to determine whether the drug had in fact dissolved. […] It was determined that 5.0% w/w of ethanol was required to dissolve the fluticasone propionate. […] R-152a propellant was then added to each vial, the amount being decreased from one vial to the next to compensate for increasing amounts of ethanol. […] The amount of ethanol in the R-152a/ethanol mixture was increased from 1% by weight on the total weight of the R-152a/ethanol mixture in 1% w/w increments. After adding the ethanol, each vial was sonicated in an effort to dissolve the drug, stored at 20° C. and then examined visually to determine whether the drug had in fact dissolved. […] Exactly the same procedure as described in Example 3 above was used except that R-134a was used as the propellant. It was determined that 13.0% w/w of ethanol (% by weight on the total weight of the R-134a/ethanol mixture) was required to dissolve the fluticasone propionate. […] Exactly the same procedure as described in Example 4 above was used except that R-134a was used as the propellant. […] The drug was weighed directly into standard aluminium 19 mL cans (C128, Presspart, Blackburn, UK), to which an appropriate amount of ethanol was added to aid solubility of the drug on addition of the propellant. The slurry of the drug in ethanol was then sonicated for 60 minutes in order to disperse the drug in the ethanol. The cans were then crimped with a 50 μL valve (Bespak, Kings Lynn, UK) following which R-152a or R-134a as appropriate was filled into the cans through the valve using a manual Pamasol crimper/filler (Pamasol, Switzerland). […] Finally, all the cans were quarantined for 14 days, valve down, at 22° C./44% RH before commencing testing of the final formulations.

[2] = Solubility of drug in liquefied propellant (pressure solubility apparatus, HPLC); type: physicochemical; settings: stored at 20° C. for 24 hours, n=3
Method: An excess of active pharmaceutical ingredient was placed into a pressure cylinder (300 cm^3 stainless steel cylinder from Whitey, Inc.). A vacuum was applied to the cylinder, which was then chilled using liquid nitrogen. Approximately 80 grams of either R-152a or R-134a propellant was charged into the cylinder, which was then stored at 20° C. for 24 hours.
A filtration unit comprising a 15 μm filter in-line with a 5 μm filter was connected to the cylinder containing the excess of drug in propellant. A second receiver pressure cylinder (150 cm^3 stainless steel cylinder from Whitey, Inc.) was exposed to a vacuum and chilled using liquid nitrogen, which was then connected to the filtration unit. Approximately 30 grams of liquid propellant containing drug in excess was passed through the filtration unit and collected in the receiver pressure cylinder.
A modified piece of 3.2 mm (⅛″) tubing was connected to the end of the receiver pressure cylinder, which was then attached to the stem of a continuous valve crimped on to a glass bottle. The 3.2 mm (⅛″) tubing was used to depress the stem of the valve and therefore, enable the contents of the receiver pressure cylinder to be collected in the glass bottle. […] The glass bottle was re-weighed and the mass of drug collected in the DUSA was determined by high performance liquid chromatography (HPLC). […]

Row | ethanol required to dissolve the drug ([1]; R-134a/ethanol mixture) [% w/w] | ethanol required to dissolve the drug ([1]; R-152a/ethanol mixture) [% w/w] | Ethanol Content in R-134a [1] [% w/w] | Ethanol Content in R-152a [1] [% w/w] | mean drug solubility (± S.D.) ([2]; propellant comprising 100% R-134a) [µg/g] | mean drug solubility (± S.D.) ([2]; propellant comprising 100% R-152a) [µg/g] | SMILES
1 | 13.0 | 5.0 | 13.0 | 5.0 | 14.27 ± 1.66 | 73.55 ± 3.98 | CCC(=O)O[C@]1(C(=O)SCF)[C@H](C)C[C@H]2[C@@H]3C[C@H](F)C4=CC(=O)C=C[C@]4(C)[C@@]3(F)[C@@H](O)C[C@@]21C [fluticasone propionate]
2 | 4.0 | 2.0 | 4.0 | 2.0 | – | – | CCC(=O)OCC(=O)[C@@]1(OC(=O)CC)[C@@H](C)C[C@H]2[C@@H]3CCC4=CC(=O)C=C[C@]4(C)[C@@]3(Cl)[C@@H](O)C[C@@]21C [beclomethasone dipropionate]
